Results on 17 compounds are retold here after article doi:10.1101/2024.08.19.608619, “Discovery of potent SARS-CoV-2 nsp3 macrodomain inhibitors uncovers lack of translation to cellular antiviral response” (bioRxiv, 2024).

Assay [1] concerns the target T1, SARS-CoV-2 nsp3-mac1 (Severe acute respiratory syndrome coronavirus 2, UniProt P0DTD1). The experiment in a line: biochemical. The format is biochemical. Conditions: SARS-CoV-2 nsp3 macrodomain TR-FRET single point.
In assay [2] the target is T1, SARS-CoV-2 nsp3-mac1. Kind of assay: biochemical. Details: SARS-CoV-2 nsp3 macrodomain TR-FRET single point, per cent inhibition, n=2.
The mark [3] stands for this setting: read-out: perc_inhibition_mean, batch_name=ASAP-0000396-001.
[4] abbreviates: read-out: perc_inhibition_mean, batch_name=ASAP-0000281-001.
Where [5] appears, read: read-out: perc_inhibition_mean, batch_name=ASAP-0000412-001.
Where [6] appears, read: read-out: perc_inhibition_mean, batch_name=ASAP-0000298-001.
Where [7] appears, read: read-out: perc_inhibition_mean, batch_name=ASAP-0000478-001.
[8] abbreviates: read-out: perc_inhibition_mean, batch_name=ASAP-0000297-001.
The mark [9] stands for this setting: read-out: perc_inhibition_mean, batch_name=ASAP-0000346-001.
Setting [10] is: read-out: perc_inhibition_mean, batch_name=ASAP-0000457-001.
[11] abbreviates: read-out: perc_inhibition_mean, batch_name=ASAP-0000289-001.

Read-outs that look alike come from different tables or passages of the source.

`NC(=O)[C@@H]1CCN(C(=O)c2cnc3[nH]c(=O)[nH]c(=O)c3c2)C1` [ASAP-0000062]: the perc_inhibition_mean on SARS-CoV-2 nsp3-mac1 [1] (concentration 50.0 uM) is reported as -6.322%. Further, the inhibition at 50 µM at SARS-CoV-2 nsp3-mac1 [2] (read-out: perc_inhibition_mean, batch_name=ASAP-0000062-001) is -6.32%.

Take `c1ccc2c(-c3c[nH]c4ncccc34)n[nH]c2c1` [ASAP-0000092]: the perc_inhibition_mean at SARS-CoV-2 nsp3-mac1 [1] (concentration 50.0 uM) was -7.254%. In addition, the inhibition at 50 µM at SARS-CoV-2 nsp3-mac1 [2] (read-out: perc_inhibition_mean, batch_name=ASAP-0000092-001) is -7.25%.

For `O=C(NCc1nc(-c2ccco2)n[nH]1)c1cc(=O)n2ncnc2[nH]1` [ASAP-0000128], the perc_inhibition_mean on SARS-CoV-2 nsp3-mac1 [1] (concentration 50.0 uM) was -2.599%. In addition, at SARS-CoV-2 nsp3-mac1 [2] (read-out: perc_inhibition_mean, batch_name=ASAP-0000128-001), the inhibition at 50 µM was -2.6%.

Consider `O=C(Nc1cnc2[nH]ncc2c1)C1(c2ccccc2)CC1` [ASAP-0000133], for which the perc_inhibition_mean at SARS-CoV-2 nsp3-mac1 [1] (concentration 50.0 uM) was 3.207%. Besides, at SARS-CoV-2 nsp3-mac1 [2] (read-out: perc_inhibition_mean, batch_name=ASAP-0000133-001), the inhibition at 50 µM turned out to be 3.21%.

As to `Cc1nc(Nc2cnn(CCO)c2)c2cc[nH]c2n1` [ASAP-0000046], the perc_inhibition_mean at SARS-CoV-2 nsp3-mac1 [1] (concentration 50.0 uM) was -6.147%. On SARS-CoV-2 nsp3-mac1 [2] (read-out: perc_inhibition_mean, batch_name=ASAP-0000046-001), the inhibition at 50 µM was -6.15%.

For `O=C(c1ccccc1)N1CCC(c2ccn3ncc(C(=O)N4CCCC[C@H](O)C4)c3c2)CC1` [ASAP-0000396], the perc_inhibition_mean at SARS-CoV-2 nsp3-mac1 [1] (concentration 49.75 uM) is recorded as 17.833%. The perc_inhibition_mean at SARS-CoV-2 nsp3-mac1 [1] (concentration 99.5 uM) came to 29.785%. In addition, at SARS-CoV-2 nsp3-mac1 [2] (setting [3]), the inhibition at 49.75 µM amounted to 17.8% and the inhibition at 99.5 µM came to 29.8%.

`Cc1c(-c2cnc3nc[nH]c(=O)c3c2)ccc2[nH]ncc12` [ASAP-0000281]: the perc_inhibition_mean at SARS-CoV-2 nsp3-mac1 [1] (concentration 49.75 uM, n=2) was -3.121%. In addition, at SARS-CoV-2 nsp3-mac1 [1] (concentration 99.5 uM, n=2), the perc_inhibition_mean is on record as -4.364%. Further, at SARS-CoV-2 nsp3-mac1 [2] (setting [4]), the inhibition at 49.75 µM was -3.12% and the inhibition at 99.5 µM is -4.36%.

As to `CN(C[C@H]1CCCN1)C(=O)c1cnn2ccc(C3CCN(C(=O)c4ccccc4)CC3)cc12` [ASAP-0000412], the perc_inhibition_mean at SARS-CoV-2 nsp3-mac1 [1] (concentration 49.75 uM) is -7.471%. The perc_inhibition_mean at SARS-CoV-2 nsp3-mac1 [1] (concentration 99.5 uM) is on record as -6.586%. For the same compound, at SARS-CoV-2 nsp3-mac1 [2] (setting [5]), the inhibition at 49.75 µM was -7.47% and the inhibition at 99.5 µM is -6.59%.

In the case of `CC(C)(CCNc1ncnc2[nH]ccc12)S(C)(=O)=O` [ASAP-0000004], at SARS-CoV-2 nsp3-mac1 [1] (concentration 50.0 uM), the perc_inhibition_mean is reported as 0.75%. For the same compound, at SARS-CoV-2 nsp3-mac1 [2] (read-out: perc_inhibition_mean, batch_name=ASAP-0000004-001), the inhibition at 50 µM came to 0.75%.

On to `O=C(CCN(Cc1cccc(Cl)c1)C(=O)C1(F)CCCCC1)N1CCNCC1` [ASAP-0000298], for which the perc_inhibition_mean on SARS-CoV-2 nsp3-mac1 [1] (concentration 49.75 uM, n=2) is -3.576%; at SARS-CoV-2 nsp3-mac1 [1] (concentration 99.5 uM, n=2), 0.185%. Further, the inhibition at 49.75 µM on SARS-CoV-2 nsp3-mac1 [2] (setting [6]) is -3.58%. The inhibition at 99.5 µM on SARS-CoV-2 nsp3-mac1 [2] (setting [6]) turned out to be 0.185%.

For the compound `COCc1nc(CNc2ncc3c(n2)COC3)cs1` [ASAP-0000098], the perc_inhibition_mean on SARS-CoV-2 nsp3-mac1 [1] (concentration 50.0 uM) is -7.137%. The inhibition at 50 µM on SARS-CoV-2 nsp3-mac1 [2] (read-out: perc_inhibition_mean, batch_name=ASAP-0000098-001) was -7.14%.

In the case of `CC(C)Cn1cc([C@H]2N(c3ncnc4[nH]ccc34)CC23CCOCC3)cn1` [ASAP-0000478], on SARS-CoV-2 nsp3-mac1 [1] (concentration 49.75 uM), the perc_inhibition_mean was -0.591%. In addition, at SARS-CoV-2 nsp3-mac1 [1] (concentration 99.5 uM), the perc_inhibition_mean is -4.664%. At SARS-CoV-2 nsp3-mac1 [2] (setting [7]), the inhibition at 49.75 µM was -0.591% and the inhibition at 99.5 µM was -4.66%.

On to `CC1(C)CN(C(=O)c2ccc(NC(=O)Nc3ccccc3)cc2)C[C@@]1(F)C(=O)O` [ASAP-0000297], for which the perc_inhibition_mean on SARS-CoV-2 nsp3-mac1 [1] (concentration 49.75 uM, n=2) is recorded as -2.566%. Moreover, the perc_inhibition_mean on SARS-CoV-2 nsp3-mac1 [1] (concentration 99.5 uM, n=2) is on record as -5.193%. For the same compound, on SARS-CoV-2 nsp3-mac1 [2] (setting [8]), the inhibition at 49.75 µM was -2.57% and the inhibition at 99.5 µM was -5.19%.

With `C[C@H](NC(=O)c1cnn2ccc(C3CCN(C(=O)c4ccccc4)CC3)cc12)c1cccnc1` [ASAP-0000346], the perc_inhibition_mean on SARS-CoV-2 nsp3-mac1 [1] (concentration 49.75 uM, n=2) is given as -1.839%. Besides, the perc_inhibition_mean on SARS-CoV-2 nsp3-mac1 [1] (concentration 99.5 uM, n=2) is on record as -6.209%. On SARS-CoV-2 nsp3-mac1 [2] (setting [9]), the inhibition at 49.75 µM was -1.84% and the inhibition at 99.5 µM was -6.21%.

For the compound `c1cc(CNc2cnc3[nH]ncc3c2)cc(-c2ccncc2)c1` [ASAP-0000022], the perc_inhibition_mean at SARS-CoV-2 nsp3-mac1 [1] (concentration 50.0 uM) was -17.179%. Besides, at SARS-CoV-2 nsp3-mac1 [2] (read-out: perc_inhibition_mean, batch_name=ASAP-0000022-001), the inhibition at 50 µM was -17.2%.

As for `Cn1nc(C(=O)O)cc1C(=O)N1CCC(c2ccn3ncc(C(=O)N4CCCCC4)c3c2)CC1` [ASAP-0000457], the perc_inhibition_mean on SARS-CoV-2 nsp3-mac1 [1] (concentration 49.75 uM) stood at 34.252%; at SARS-CoV-2 nsp3-mac1 [1] (concentration 99.5 uM), 52.667%. The inhibition at 49.75 µM at SARS-CoV-2 nsp3-mac1 [2] (setting [10]) amounted to 34.3%. Moreover, the inhibition at 99.5 µM on SARS-CoV-2 nsp3-mac1 [2] (setting [10]) was 52.7%.

On to `C[C@H](NC(=O)c1ccc(NC(=O)Nc2ccccc2)cc1)[C@@H]1CCCO1` [ASAP-0000289], for which, on SARS-CoV-2 nsp3-mac1 [1] (concentration 49.75 uM, n=2), the perc_inhibition_mean is -4.279%. On SARS-CoV-2 nsp3-mac1 [1] (concentration 99.5 uM, n=2), the perc_inhibition_mean was -4.858%. Moreover, at SARS-CoV-2 nsp3-mac1 [2] (setting [11]), the inhibition at 49.75 µM is -4.28% and the inhibition at 99.5 µM was -4.86%.
